Test results: patent publication US20260242320A1, “USE OF CANNABIDIOL DERIVATIVE IN PREPARATION OF MEDICAMENT” (priority 2023, published 2026)
Entries after “also recorded” stand apart in the source; their conditions may differ.

Legend:
[1] = system: LPS-activated BV-2 cells; test: Cell morphology determination; type: cell-based; conditions: 10 μM, LPS 200 ng/ml, 24 h
Experimental: BV-2 cells were seeded at a density of 2.5×10^5 cells per milliliter in 6-well plates and incubated for 12 h. Cells were incubated with CIAC001 (10 μM) in the absence or presence of LPS (200 ng/ml) for 24 h. The images of BV-2 cells were taken with an inverted microscope (Ts2-FL, Nikon Corporation, Tokyo, Japan) and analyzed by ImageJ. Statistic data are counted in at least three hundred cells.

[2] = system: morphine-conditioned mice; test: Morphine-induced conditioned place preference (CPP); type: in vivo; conditions: 0.2 mg/kg i.p.
Experimental: Conditional place conditioning (CPP) was conducted using the classic 10-consecutive-day procedure. On days 1 and 2, each mouse was separately placed into the CPP apparatus for 15 min to habituate the apparatus. On day 3 (preconditioning), the time spent in each compartment was recorded to determine any preference for the two compartments. Mice were divided into three groups: vehicle group, 7.5 mg/kg morphine, as well as 7.5 mg/kg morphine+0.2 mg/kg CIAC001. During the conditioning phase, mice were separately isolated in the compartment for 30 min on 6 consecutive days. Mice were given morphine on days 4, 6, and 8, and vehicle (5 mL/kg) was administered on days 5, 7, and 9. The postconditioning phase was carried out 24 h after the last conditioning session. Each mouse was placed in the apparatus and explored freely, and the time spent in each compartment was recorded for 15 min. The CPP score(s) was calculated using the time spent in the drug-paired compartment minus the time spent in the vehicle-paired compartment.

C=C(C)[C@@H]1CCC(C)=C[C@H]1c1c(O)cc(C(C)n2nccn2)cc1O (stereo partly drawn) [CIAC001, (1′R,2′R)-4-(1-(2H-1,2,3-Triazol-2-yl)ethyl)-5′-methyl-2′-(prop-1-en-2-yl)-1′,2′,3′,4′-tetrahydro-[1,1′-biphenyl]-2,6-diol]
LPS-induced morphological changes of microglia [1]: considerably reversed
expression of morphine-induced CPP [2]: substantially decreased; also recorded: ameliorated
